# Reference: patent publication US20050222423A1, “Carboxylic acid derivative” (TAISHO PHAR[…]., LTD., priority 2001, published 2005)
# Assays:
# Flt-1 = target: T1, Flt-1 (Homo sapiens, UniProt P17948); experiment: VEGF Receptor-Binding Test ([125I]-VEGF binding to NIH3T3 cells in which Flt-1 was forced to be expressed); conditions: test compound concentration 1 μg/ml; [125I]-VEGF 25 pM; 90 minutes at 4° C.
# T1 construct: expressed in transfected cells; host or cells: NIH3T3 cells (G418-selected)
# Description: According to the method described in a document (Cell Growth & Differentiation, vol. 7, pp. 213-221, 1996), the following tests were carried out.
# NIH3T3 cells, in which Flt-1 was forced to be expressed, were seeded on a 24-well collagen-coated plate (7×10^4 cells/well), and were cultured in Dulbecco's modified Eagle's medium (DMEM) containing 10% bovine serum and 200 μg/ml of Geneticin G418 for 24 hours at 37° C. under an atmosphere of 5% carbon dioxide gas. The cells were preincubated in Buffer A [containing 10 mM HEPES (N-2-hydroxyethylpiperazine-N′-2-ethanesulfonic acid) and 0.1% BSA (bovine serum albumin) in DMEM] for 30 minutes at 4° C. Subsequently, the medium was replaced with Buffer B (containing 10 mM HEPES and 0.5% BSA in DMEM). […] The radioactivity of the lysed cells in each well was measured by means of a gamma counter, and a total binding quantity of [^125I]-VEGF was calculated. Non-specific binding quantity of [^125I]-VEGF was measured by competition assay in the presence of 10 nM non-labeled VEGF. The specific binding quantity of [^125I]-VEGF was calculated from the difference between the total binding quantity of [^125I]-VEGF and non-specific binding quantity of ^125I]-VEGF. The binding inhibition index of the test compounds was calculated by the following equation.
# [1] = pH 6.9; phosphate buffer 20 mM; 25° C.
# Description: 1 mg of a test compound was weighed out in a threaded test tube, 1 ml of a phosphate buffer (pH: 6.8; 20 mM; ion intensity=0.15) was added thereto and, after shaking for 2 hours at room temperature under light-shielded condition, was incubated for 22 hours at 25° C. A supernatant obtained by centrifuging the test tube for 10 minutes at 3000 rpm at 25° C. was further centrifuged for 10 minutes at 11000 rpm at 25° C. The thus-obtained supernatant was diluted with a water/acetonitrile (1:1) mixture with a dilution ratio of 2 times to 21 times to prepare a sample solution (A). Also, 0.5 mg of the test compound was dissolved in 5 ml of acetonitrile, and diluted two times with acetonitrile to prepare a standard solution (B). 10 μl of the sample solution (A) and 10 μl of the standard solution (B) were subjected to measurement according to HPLC method to determine a peak area of the test compound in each of the solutions. The solubility (mg/ml) of the test compound was calculated according to the following equation using the measured values.
# Column temperature: 40° C.
# T1 sequence (P17948 27-1338): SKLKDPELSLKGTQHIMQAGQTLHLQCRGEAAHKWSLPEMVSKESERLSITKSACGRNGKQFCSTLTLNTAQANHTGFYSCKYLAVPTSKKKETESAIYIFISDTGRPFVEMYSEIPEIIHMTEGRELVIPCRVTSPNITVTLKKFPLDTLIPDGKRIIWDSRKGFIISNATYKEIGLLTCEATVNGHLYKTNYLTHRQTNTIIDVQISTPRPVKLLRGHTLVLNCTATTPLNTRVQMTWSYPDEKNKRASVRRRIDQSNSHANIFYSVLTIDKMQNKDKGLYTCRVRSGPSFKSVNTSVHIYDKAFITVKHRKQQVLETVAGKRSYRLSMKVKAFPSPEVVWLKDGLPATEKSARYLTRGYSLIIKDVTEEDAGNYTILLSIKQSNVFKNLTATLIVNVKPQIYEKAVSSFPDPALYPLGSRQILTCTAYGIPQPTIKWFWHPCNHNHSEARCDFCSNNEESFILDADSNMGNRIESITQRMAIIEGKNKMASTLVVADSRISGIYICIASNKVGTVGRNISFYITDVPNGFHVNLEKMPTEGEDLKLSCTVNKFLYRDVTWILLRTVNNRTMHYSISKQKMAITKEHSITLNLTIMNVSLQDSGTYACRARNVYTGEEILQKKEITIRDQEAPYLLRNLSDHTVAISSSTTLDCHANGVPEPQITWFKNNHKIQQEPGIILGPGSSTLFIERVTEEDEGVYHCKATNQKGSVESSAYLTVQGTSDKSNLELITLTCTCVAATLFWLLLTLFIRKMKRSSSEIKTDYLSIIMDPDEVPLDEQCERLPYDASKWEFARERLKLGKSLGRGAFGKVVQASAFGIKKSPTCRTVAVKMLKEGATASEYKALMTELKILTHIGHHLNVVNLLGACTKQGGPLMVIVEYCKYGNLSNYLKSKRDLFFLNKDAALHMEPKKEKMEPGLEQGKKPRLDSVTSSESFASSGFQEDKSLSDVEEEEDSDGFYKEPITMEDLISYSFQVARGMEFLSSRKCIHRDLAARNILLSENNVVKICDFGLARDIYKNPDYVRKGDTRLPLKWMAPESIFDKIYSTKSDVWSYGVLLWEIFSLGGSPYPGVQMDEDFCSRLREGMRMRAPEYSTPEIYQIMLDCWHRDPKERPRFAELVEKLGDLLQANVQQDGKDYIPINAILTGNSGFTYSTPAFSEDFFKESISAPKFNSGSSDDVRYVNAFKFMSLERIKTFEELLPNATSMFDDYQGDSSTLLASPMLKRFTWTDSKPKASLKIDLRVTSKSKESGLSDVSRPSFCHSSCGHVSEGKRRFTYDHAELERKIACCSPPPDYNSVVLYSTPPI
smiles,measurement,setting,value
"CCCCCCCCCCCCCCCCCCOc1ccc(CCC(=O)Nc2ccc(Oc3ccc(C(=O)O)cc3)c(C(=O)O)c2)cc1 [a, 5-Amino-2-(4-carboxyphenoxy)-N-[3-{4-(1-octadecyloxy)-phenyl}propionyl]benzoic acid]",Inhibition Index,Flt-1,65%
same,Solubility,[1],0.029 µg/mL
